Assay results: patent publication US6835563B1, “Compositions and methods for increasing cholesterol efflux and raising HDL ATP binding cassette transporter protein ABC1” (CV Therapeutics, priority 1999, dated 2004)

Columns and labels:
[1] = tested on: RAW 264.7 cells; assay: Apo A-I-mediated cholesterol efflux from cholesterol-loaded RAW 264.7 macrophage cells; conditions: control cells, apo A-I only
Protocol: Assay to Measure Lipid Efflux: Apo AI-mediated efflux of cholesterol and, phospholipid was assayed according to the method described in. […] RAW 264.7 cells were cholesterol-loaded through the scavenger receptor by 24-hour incubation with acetylated LDL as described in Smith et al., J. Biol. Chem., 271:30647-30655 (1996). Briefly, RAW 264.7 cells in 24-well dishes were cholesterol-loaded and labeled overnight in 0.5 ml of DMEM supplemented with 50 μl/ml 1M glucose, 10 μl/ml 200 mM glutamine and 2% BSA and with 50 μg/ml acetylated low density lipoprotein (AcLDL) and [^3H]-cholesterol which had been pre-incubated for 30 minutes at 37° C. with AcLDL to yield a final concentration of 0.33 μCi/ml [^3H]-cholesterol. Cells were subsequently washed five times with PBS containing 1% BSA and incubated overnight (16-18 hours) in DMEM/BSA to allow for equilibrium of cholesterol pools. After equilibrium of cholesterol pools, cells were rinsed four times with PBS/BSA and incubated for one hour at 37° C. with DMEM/BSA before the efflux incubations. Efflux medium (DMEM/BSA) containing either albumin alone (control), albumin plus HDL (40 μg protein/ml), or albumin plus apo A-I (10 μg/ml, Biodesign International, Kennebunk, Me.) was added and the cells were incubated for 4, 24, or 48 hours. […] The radioactivity found in the culture medium was measured by scintillation counting after a 15-minute centrifugation at 12,000 g. The radioactivity in the cells was measured by scintillation counting after solubilization in 0.5 ml of 0.2M NaOH (Smith et al., J. Biol. Chem., 271:30647-30655 (1996)) or extraction in hexane:isopropanol (3:2 v/v) as described in Francis, et al., J. Clin. Invest., 96, 78-87 (1995). […] The efflux of cholesterol or phospholipid was expressed as the percentage of tritiated lipid counts in the medium over the total tritiated lipid counts recovered from the cells and medium (cpm medium/cpm (medium+lysate)×100).
Briefly, RAW 264.7 cells suspended at a density of 1.25×10^5 cells/ml were grown in DMEM/10% FBS supplemented with pyruvate. After 24 hours, the medium was removed and replaced with DMEM/BSA plus radiolabeled cholesterol (1 μCi/ml ^3[H]-cholesterol) and 50 μg/ml of acetylated LDL for 24 hours. The cells were then maintained for 24 hours in equilibrium medium consisting of DMEM/BSA plus either apo A-I alone (20 μg/ml), apo A-I and 8-bromo 3′, 5′ cAMP (1 mM) or apo A-I and rolipram (50 μM).

[2] = tested on: ABC1 mRNA; assay: ABC1 mRNA by quantitative RT-PCR in TD1 and TD2 fibroblasts; assay type: cell-based, human; conditions: apo A-I 10 μg/ml
Protocol: (§1) To determine whether ABC1 plays a rate-limiting role in cellular sterol efflux, the synthesis of ABC1 was measured under various cellular conditions related to cholesterol efflux processes. Specifically, normal fibroblasts and TD fibroblasts were individually exposed to conditions of excess cAMP, cholesterol, or Apo A-I. Cell cultures of normal skin fibroblasts and TD1 and TD2 fibroblasts were prepared as described in Example 1. The level of ABC1 mRNA was measured by RT-PCR. Cell cultures: Immortalized cell cultures of normal skin fibroblasts and TD1 and TD2 fibroblasts were prepared as described in Example 1. Cells were grown to subconfluence in DMEM/10% FBS before replacement with DMEM/BSA and the indicated additive for 24 or 48 hours. RNA was prepared as described in Example 2. RT-PCR: Quantitative PCR was carried out using the GeneAmp 5700 Sequence. Detection System (Perkin-Elmer Applied Biosystems, Foster City, Calif.). Briefly, 500 ng of DNase-treated mRNA was reverse transcribed using random hexamer primers at 2.5 μM. Approximately 5% of this reaction was amplified by PCR using the SYBR green core kit (PE. Applied Biosystems, Foster City, Calif.; Cat. #4304886) and human ABC1 primers […] […] The mRNA in each sample was quantitated by detecting the increase in fluorescence caused by SYBR green binding to the double-stranded amplification product generated during each PCR cycle. […]

[3] = tested on: normal fibroblasts; assay: HDL- and apo A-I-mediated [3H]cholesterol efflux from normal fibroblasts; assay type: cell-based, human; conditions: HDL 40 μg protein/ml or apo A-I 10 μg/ml, up to 48 h
Protocol: (§2) Cell Cultures: Human fibroblasts were obtained from skin explants from two normal subjects (NL1) and three unrelated patients with Tangier disease (TD). TD1 cells were obtained from a person with extremely low plasma HDL cholesterol and apo A-I levels and clinical symptoms typical of Tangier disease. […] TD3 cells were obtained from a person with Tangier disease who presented with orange tonsil remnants, asymmetrical motor neuropathy, plasma HDL cholesterol of 5 mg/dL, and LDL cholesterol of 16 mg/dL (Lawn et al., J. Clin. Invest., 104, R25-R31 (1999)). The normal cells and TD subject cells were immortalized as described in Oram et al., J. Lipid. Res., 40: 1769-1781 (1999). Briefly, the cells were transfected with amphotropic retroviruses containing vectors with inserts of human papillomavirus 16-oncogenes E6 and E7 and a neomycin resistance selectable marker. Control cells were infected with vector alone (mock-infected). Pooled cell populations were selected in the presence of G418 for two passages, after which G418 was excluded from the medium. Fibroblasts were used between the fifth and sixteenth passage (primary) or sixth and fourteenth passage (immortalized). The immortalized normal and TD cells were seeded into 16-mm wells or 35-mm dishes and grown to confluence in. Dulbecco's modified. Eagle's medium (DMEM) plus 10% fetal bovine serum (FBS) before experimental use. […]

[4] = tested on: TD fibroblasts; assay: HDL- and apo A-I-mediated [3H]cholesterol efflux from Tangier disease fibroblasts; assay type: cell-based, human; conditions: HDL 40 μg protein/ml or apo A-I 10 μg/ml, up to 48 h
Protocol: as §2

[5] = tested on: ABC1 mRNA; assay: ABC1 mRNA by quantitative RT-PCR in normal fibroblasts; assay type: cell-based, human; conditions: apo A-I 10 μg/ml 18-24 h
Protocol: as §1

[6] = tested on: ABC1 protein; assay: Cell-surface ABC1 protein by biotin labeling and immunoprecipitation; assay type: cell-based, human; conditions: serum deprivation and cholesterol-loading (30 μg/ml, 48 h), normal and TD1 cells
Protocol: Cell-surface labeling and immunoprecipitation was used to determine whether increased expression of ABC1 protein in the plasma membrane is correlated with an increase in cholesterol efflux (FIG. 10). The relative amount of ABC1 on the cell surface was determined by cross-linking surface proteins on intact cells with the membrane-impermeable agent sulfo-NHS-biotin, followed by the steps of membrane solubilization, immunoprecipitation with ABC1 antibody, SDS-PAGE, and detection with streptavidin.
Both normal and TD1 cells were cultured under control conditions and conditions known to increase apolipoprotein-mediated cholesterol efflux (Oram, et al., J. Lip. Res., 40: 1769-1781 (1999)). […] Cholesterol-loaded cells were grown to confluence in DMEM/10% FBS and then incubated in DMEM/BSA for 48 hours with 30 μg/ml cholesterol plus 18 hours with no additives (cholesterol). […]
Detection of ABC1 Protein: The eluted biotinylated proteins were subjected to SDS-PAGE (6% gel; 150V, 5 hours) and transferred to nitrocellulose membrane (200 mA, 18 hours). The nitrocellulose was probed with streptavidin-horse radish peroxidase (Amersham Pharmacia, Piscataway, N.J.; Cat. #RPN 1231) diluted 300-fold and detected by enhanced chemiluminescence labeling (ECL) according to vendor's protocol (Amersham Pharmacia, Piscataway, N.J.). […]

Compound	cholesterol efflux [1]	ABC1 expression on exposure of cholesterol-loaded cells ([2]; TD1 cells)	ABC1 expression on exposure of cholesterol-loaded cells ([2]; TD2 cells)	efflux of [3H]-cholesterol on addition to albumin medium [3]	efflux of [3H]-cholesterol on addition to albumin medium [4]	ABC1 mRNA expression on subsequent exposure of cholesterol-loaded cells [5]	cell-surface expression of ABC1 [6]
apo A-I: apolipoprotein cholesterol acceptor (Biodesign International)	1890 c.p.m.	did not alter ABC1 expression	slightly increased ABC1 expression	promoted the efflux	little or no effect	marked decrease	–
CC(C)CCC[C@@H](C)[C@H]1CC[C@H]2[C@@H]3CC=C4C[C@@H](O)CC[C@]4(C)[C@H]3CC[C@]12C [cholesterol]	–	–	–	–	–	–	markedly increased
